Reference: article PMC3832545 (PLoS ONE, 2013)

What was measured:
MCF-7 cells = assay: MTT cell proliferation assay, MCF-7 cells; type: cell-based, human; settings: 24 h, 0.1% (v/v) serum, 0.001 to 1000 nM, three independent experiments with four replicates
Procedure: Effect of test compounds on proliferation was assessed with 3-(4,5-dimethylthiazol-2-yl)-2,5-diphenyl tetrazolium bromide (MTT) assays, essentially as described previously. In brief, MC38 cells were plated in 96-well plates (5,000 cells per well) in growth medium. […] Data for relative cell numbers from the three repeated experiments, each with four replicate samples per condition, were then used to fit dose-response curves using GraphPad Prism version 6.0 (GraphPad Software Inc., La Jolla, CA, USA). Cell proliferation experiments were done with MCF-7 cells as described for MC38 cells, except that 20,000 cells were plated per well. See Materials S1 and Figure S1 for detailed supplementary information regarding cell proliferation experiments.
In initial tests the association between number of cells and absorbance at 570 nm measured in an MTT assay was examined after incubation of MC38 cells with MTT for 3 h, 3 h after plating different number of cells per well, i.e., the total incubation period was 6 h. As expected there was a highly linear relationship between absolute number of cells and the measured absorbance (Figure S1). […] After incubation for 1 day cells were rinsed in PBS (room temperature) and then starvation medium was added. […] Control samples were treated with starvation medium only. After treatment for 21 h, 10 µl stock solution of MTT dissolved in PBS (5.0 mg/ml) was added to each well, and incubation was continued for 3 h so treatment with test compounds in total lasted 24 h. At the end of the treatment period medium with test compounds was removed and formazan crystals were suspended by adding 100 µl 0.04 M HCl dissolved in isopropanol to each well and absorbance was thereafter read at 570 nm using a Emax PC plate reader (Molecular Devices LLC, Sunnyvale, CA, USA). Each treatment was done with four replicate samples and three independent experiments were performed. In each experiment the absorbance was normalized to the mean absorbance in the untreated control samples. […]

[1] = Plasma concentrations (pharmacokinetics) after sc injection in DIO-mice; type: in vivo, mouse
Procedure: The animal experiments were performed as described recently. […] Animal care and treatments were conducted in accordance with established guidelines and protocols approved by the Lady Davis Institute (protocol # 5951) and McGill University's Animal Ethics Committee. Mice were housed one mouse per cage with ad libitum access to tap water and high- or low fat diet, respectively, throughout the studies. […] The size of the tumor allografts was measured three times per week and the volume calculated using the following formula: length × width^2 × 0.52. Based on the tumor volume data for each mouse, we calculated the area under the tumor growth curves (tumor growth AUC). At termination of the experiments, mice were anesthetized with isoflurane. Blood was collected by cardiac puncture and immediately after euthanasia by cervical dislocation, samples of the liver, colon, gastrocnemius muscle and the MC38 cell tumor allografts were dissected out and snap-frozen in liquid nitrogen for later preparation of tissue lysate. Before experiments were initiated, the systemic levels of mouse insulin were measured using a Rat/Mouse Insulin ELISA kit (Millipore Corp., Bilerica, MA, USA), according to manufacturer's instructions. […] Mouse C-peptide was assayed with Rat/Mouse C-peptide 2 ELISA kit (Millipore), according to manufacturer's instructions. […] At termination of experiments whole blood was collected in EDTA-coated tubes (BD Biosciences) by cardiac puncture. […] Mouse C-peptide was assayed with Rat/Mouse C-peptide 2 ELISA kit (Millipore) according to manufacturer's instructions. […] The lower detection limit of the assay was 2 pM. […] Plate wells were coated with a mouse monoclonal anti-insulin antibody OXI005 (Novo Nordisk A/S) coupled to acceptor beads. […] Ten μl of this dilution were added to the wells. […] The lower detection limit of the assay was 233 pM.

[2] = test system: PI3K signalling pathway in MC38 cell allografts; assay: Signalling in MC38 tumor allografts in vivo, Western blot; parameters: species or system mouse; settings: MC38 tumor allografts collected 1 h after sc administration, DIO-mice
Procedure: We focused on different endpoints in these animal experiments and monitored tumor growth in all experiments, see Table 1. The animal experiments were performed as described recently. […] Animal care and treatments were conducted in accordance with established guidelines and protocols approved by the Lady Davis Institute (protocol # 5951) and McGill University's Animal Ethics Committee. Mice were housed one mouse per cage with ad libitum access to tap water and high- or low fat diet, respectively, throughout the studies. The temperature in the animal rooms was maintained at 20-25°C with a light/dark cycle of 14/10 hours. Mice were acclimatized for 7-10 days before experimental procedures were initiated. At experimental day 0, 2.0×10^5 (experiment A) or 5.0×10^5 (all other experiments) MC38 cells, suspended in 100 μl phosphate-buffered saline (PBS), were injected subcutaneously (sc) in the right flank of the mice. […] The size of the tumor allografts was measured three times per week and the volume calculated using the following formula: length × width^2 × 0.52. Based on the tumor volume data for each mouse, we calculated the area under the tumor growth curves (tumor growth AUC). At termination of the experiments, mice were anesthetized with isoflurane. […] Incubation with secondary antibody (horse radish peroxidase-conjugated goat anti-rabbit IgG (Santa-Cruz Biotechnology, Santa Cruz, CA, USA, cat. no 5401) and visualization of protein bands was done as described previously. The intensity of protein bands was quantified using the software ImagePro (BioRad). In each cell signalling experiment, band intensities were normalized to the mean of the vehicle-treated samples. IR and IGF-1R bands in the liver, muscle colon and MC38 cell allografts were normalized to mean band intensities in liver and muscle samples, respectively.

## IGF-1: recombinant human IGF-1 (Increlex, IPSEN Pharma GmbH)
MCF-7 cells
  Ranking according to mitogenic potency (MTT assay): IGF-1>X10>HI
[1]; mouse, in vivo, sc
  Plasma elimination half-life (t½): approximately 70 min
[2]
  Activation of Akt, p70S6K and mTOR in tumor allografts: pronounced activation

## human insulin [HI]
MCF-7 cells
  Ranking according to mitogenic potency (MTT assay): IGF-1>X10>HI
[1]; DIO-mice, 600 nmol/kg sc, estimated from plasma concentrations […] min, 1 h and 6 h after injection
  Plasma elimination half-life (t½): approximately 30 min
[1]; DIO-mice, 600 nmol/kg sc, plasma, LOCI / wash-LOCI / ELISA
  Cmax (plasma): approximately 1000 nM
[2]
  Activation of Akt, p70S6K and mTOR in tumor allografts: pronounced activation

## insulin analog B10Asp [X10]
MCF-7 cells
  Ranking according to mitogenic potency (MTT assay): IGF-1>X10>HI
[1]; mouse, in vivo, sc
  Cmax relative to plasma concentrations of endogenous mouse insulin in hyperinsulinemic DIO-mice: approximately 1000 fold
  Plasma elimination half-life (t½): approximately 30 min
  Time of maximal plasma concentration: 15 min
[2]
  Activation of Akt, p70S6K and mTOR in tumor allografts: pronounced activation
